This note sets out measurements from ChEMBL document CHEMBL3638859, “Aryl benzylamine compounds” (2014).

The target of this assay is Sphingosine 1-phosphate receptor 1 (Homo sapiens, UniProt P21453). Nature of the assay: Receptor Calcium FLIPR Antagonist Assay: The assay measures intracellular changes of Ca2+ mediated by the synthetic probing agonist 3-{[2-(2-Trifluoromethyl-biphenyl-4-yl)-benzo[b]thiophen-5-ylmethyl]-amino}-propionic acid (GNF-AC-1) in the HeLa-S1P1/Galpha16 cell clone 1: HeLa (human cervix carcinoma, ATCC CCL2) cells stably expressing N-terminally myc-tagged human S1P1 receptors (GenBank accession No. NM001400; UNIPROT P21453) and promiscuous Galpha16 protein (GenBank accession number M63904, Swissprot P30679) are cultured at 37 C., 5% CO2, and 95% relative humidity. The cells are plated in 384 well black plates (10'000 cells per well). After 24 hours the cells are loaded with Fluo-4-AM (1.6 uM in HBSS and 2.5 mM probenicid) for 1 hour at 37 C. After washing, the cells are transferred to the FLIPR. The test compounds are added at different concentrations (<=100 uM) in HBSS in the presence of 0.1% BSA and changes in fluorescence are recorded (indication of agonism). The format is functional, cell-based.
Sphingosine 1-phosphate receptor 1, sequence (P21453 whole entry): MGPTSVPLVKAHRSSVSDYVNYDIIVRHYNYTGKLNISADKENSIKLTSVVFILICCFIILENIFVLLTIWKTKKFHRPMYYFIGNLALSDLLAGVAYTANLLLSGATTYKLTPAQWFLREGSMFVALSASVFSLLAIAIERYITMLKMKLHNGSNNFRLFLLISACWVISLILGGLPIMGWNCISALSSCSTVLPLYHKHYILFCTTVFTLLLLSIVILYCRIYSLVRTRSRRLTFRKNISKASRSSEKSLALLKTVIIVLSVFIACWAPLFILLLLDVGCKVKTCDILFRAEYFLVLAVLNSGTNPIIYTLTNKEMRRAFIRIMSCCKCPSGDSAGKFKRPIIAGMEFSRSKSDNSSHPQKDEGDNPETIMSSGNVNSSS

As to `CC[C@@H](Nc1ccc(Cl)c(CNCCC(=O)O)c1)c1cc(C)c(Cl)c(C)c1`, the IC50 was found to be 2.4 nM.

Regarding `Cc1cc([C@H](Nc2ccc(F)c(CN3CC(C(=O)O)C3)c2)C(F)(F)F)ccc1Cl`, the IC50 was 0.1 nM.

Broadly, the IC50 is the point on the concentration scale where inhibition reaches its midpoint.
